This note sets out measurements from a melting point compilation (Tetko et al.; mined from patent text by program, amines drawn as free bases though some values may be those of a salt).

A value given as a limit tells only on which side of the number the result lay.

In general, melting point refers to the temperature of the solid-liquid transition. `O=C(O)COc1cc(Cl)ccc1C(=O)NCc1nc2cc(C(F)(F)F)ccc2s1` showed a melting point of 225 to 227 °C. In the case of `Cn1cc(-c2cc3cccnc3[nH]2)c2cc(C(=O)NCC(O)CO)ccc21` (stereo not drawn) it was 171 to 172 °C; in that of `N#Cc1ccnc(C=Cc2ccccc2)n1`, 147 to 150 °C; in that of `CC(C)c1ccc(-c2noc3c2CCC(C(=O)O)CC3)cc1` (stereo not drawn), 109 to 111 °C.

Compound `COC(=O)c1cc(-c2ccc(S(C)(=O)=O)cc2)n(-c2ccc(F)cc2)c1` registered a melting point of 144 to 146 °C. `CCS(=O)(=O)Nc1cc(N=C=S)c(F)cc1Cl` gave a melting point of 104 to 105 °C.

Regarding `CCCCC(=O)N(Cc1ccc2c(c1)c1ccccc1n2CCc1nnn[nH]1)C(C(=O)O)C(C)C` (stereo not drawn), the melting point lay within 111 to 112 °C.

Take `O=C1C(=O)c2ccc(Cl)cc2C2=C1SCC1(CCNCC1)O2`: the melting point is over 300 °C. Under `CN(C[C@H]1CC[C@H](C(=O)O)CC1)c1ncc(Br)cn1` stands 111 to 113 °C. Under `Cc1c(CO)ncnc1N1CCCCC1` stands 79 to 81 °C. The compound `N#CCN1CCC(NC(=O)c2cc(Cl)c(N)c3c2OCCC3)CC1` displayed a melting point of 194 °C. Under `CCCc1cc2c(cc1C=Cc1ccc(C(=O)OC)cc1)C(C)(C)CCC2(C)C` stands 120 to 121 °C; under `CCOC(=O)CC(NC(=O)c1cc(N)ccc1OCCOC)c1ccccc1` (racemic), 105 to 106 °C; under `O=C1CC(c2ccccc2)c2cccc(O)c21` (stereo not drawn), 80 °C. Under `COc1cnc(OC)n2nc(N)nc12` stands 185 to 186 °C. In the case of `COc1ccc(-c2c3ccc(OC)cc3cc3sc4ccccc4c23)cc1` it was 158 to 159 °C; in that of `COc1cc2cc(C(=O)N3CC(CCl)c4c3cc(NC(=O)C(C)(C)c3ccccc3[N+](=O)[O-])c3ccccc43)[nH]c2c(OC)c1OC` (stereo not drawn), 139 to 143 °C.

With `CCCCCCCCOC(=O)N(C[C@H](O)[C@@H](O)[C@H](O)[C@H](O)CO)C(C)CC` (stereo partly drawn), the melting point worked out at 101 °C. Turning to `N#CC(CN)C(CO)c1ccc(Cl)c(Cl)c1` (single isomer, unassigned; (+)), the melting point lay in the range of 80 to 81 °C.

`CC(Cl)CNc1cccc(C(N)=O)c1` (stereo not drawn): the melting point lay within 193 to 194 °C. In the case of `CN(C)C(=O)C(C#N)=C1Nc2ccccc2O1` it was 196 °C; in that of `CC(C)(C)c1cc(Cl)cc(CO[C@H]2CCCN(Cc3nc(=O)[nH][nH]3)[C@H]2c2ccccc2)c1`, 181 to 182 °C; in that of `CNS(=O)(=O)c1cn(C)c2cc(C(F)(F)F)ccc2c1=O`, 218 to 219 °C.

In turn, `NC(=O)N(O)CC#Cc1ccc(F)c(C2=N[C@H](c3ccccc3)CO2)c1` registered a melting point of 173 to 174 °C. In turn, `COc1cc(C)c(C=CC(C)=CC=CC(C)=CC(=O)n2ccnc2)c(C)c1C` displayed a melting point of 184 to 185 °C. In the case of `O=C(O)Cc1ccc(OCCNC(=O)C2Cc3ccccc3N2S(=O)(=O)c2ccc(-c3cccc(C(F)(F)F)c3)cc2)c(Cl)c1` (stereo not drawn) it was 96 °C; in that of `CCn1c(=O)c2c(nc(/C=C/c3ccccc3OC)n2C)n(CC)c1=O`, 190 °C. In turn, `COCc1c(-c2ccno2)ncc2[nH]c3ccc(OCc4ccccc4)cc3c12` came in with a melting point of 125 to 126 °C.

As for `CCc1cccc2c(C(CO)NC=O)c[nH]c12` (stereo not drawn), the melting point was 195 to 197 °C. Compound `O=S(=O)(NCc1ccccc1)c1ccc(N(OCC2CCCCC2)c2ncc3[nH]cnc3n2)cc1` had a melting point of 222 to 224 °C. In the case of `C=CCNc1nc(NCc2ccccc2)c2scc(C)c2n1` it was 97 to 98 °C; in that of `O=C(CC[C@@H](C(=O)OCc1ccccc1)n1c2ccccc2c2ccccc21)OCCOC(=O)c1ccc(NC(=O)OCc2ccccc2)cc1`, 45 °C. In the case of `CCc1ccc(-c2ccc(C(=O)Nc3cc4ncc(CN5CCCC5)cc4cc3C)cc2)cc1` it was 188 °C. Under `CC1(Cc2ccccc2)Cc2cc(OCC(=O)O)c(Cl)c(Cl)c2C1=O` (stereo not drawn) stands 167 to 168 °C.

In turn, `O=C(O)c1cc(Cl)c(Cl)nc1Cl` yielded a melting point of 164 to 168 °C. Compound `O=C(NCCCC(F)(F)F)Oc1ccc([N+](=O)[O-])cc1` registered a melting point of 118 to 120 °C. Under `CC(C)c1onc(-c2c(Cl)cccc2Cl)c1COc1ccc(NCc2ccc(C(=O)O)cc2)c(C(F)(F)F)n1` stands 259 to 260 °C; under `CC(c1ccc(-c2ccccc2F)cc1)S(=O)(=O)CC(=O)O` (stereo not drawn), 144 to 146 °C.

`Cc1cccc(COc2cccnc2N)c1F`: the melting point was in the range of 115 to 118 °C.

For the compound `Cc1cc(-c2nc3cccnn3c2-c2ccnc(NC(=O)NC3CC3)c2)ccc1F`, the melting point lay in the range of 222 to 223 °C. `CC(C)(NC(=O)c1nc2ccc(NCCCN3CCC(OC(c4ccccc4)c4ccccc4)CC3)nn2n1)C(=O)O` displayed a melting point of 247 to 249 °C. `CCCCOC(=O)c1cccc(CCN(C)CCCC(C#N)(c2ccc(OC)c(OC)c2)C(C)C)c1` (stereo not drawn) showed a melting point of 97 to 103 °C. In turn, `O=C(O)CCCSc1ncnc2ncn(Cc3ccc4c(c3)Nc3nccnc3S4)c12` displayed a melting point of 120 to 130 °C. `CNc1nc(C(C)c2ccc(-c3ccccc3)c(F)c2)c(C(=O)O)s1` (stereo not drawn) showed a melting point of 133 to 134 °C. Under `Nc1cccc(CCN2CCN(c3nsc4ccccc34)CC2)c1` stands 108 °C; under `O=C1NC(O)c2c1c1c3ccccc3[nH]c1c1[nH]c3ccccc3c21` (stereo not drawn), over 300 °C.

`CN1CC(c2cccc(Br)c2)=C(c2ccc(S(C)(=O)=O)cc2)C1=O` yielded a melting point of 138 to 139 °C. Under `CC(C)c1ccc(NN)c(Cl)c1` stands 64 to 66 °C. For the compound `CC(=O)Oc1cc(C(C)C)ccc1C1(OC(C)=O)C(=O)c2cccc(N)c2C1=O` (stereo not drawn), the melting point is 148 to 151 °C. In the case of `CC(=NNc1ccc(C2=NNC(=O)CC2)cc1)c1ccc(C#N)cc1` it was 288 to 290 °C; in that of `CCOC(=NC(=O)NC)N1Cc2ccccc2-c2ccccc2C1`, 137 to 139 °C; in that of `CCCC(=O)c1c[nH]c2c(N3C(=O)c4ccccc4C3=O)cccc2c1=O`, 318 to 320 °C. With `N#CC1=C(c2cccs2)Nc2n[nH]cc2C1c1cccc(C#N)c1Br` (stereo not drawn), the melting point was over 280 °C. As to `O=C(Nc1ccc(Cl)cc1)C(Cl)CCl` (stereo not drawn), the melting point was 128 to 129 °C. Under `O=CNC1(c2ccccc2)CCN(Cc2ccccc2)CC1` stands 140 °C; under `CC(C)=CCN1Cc2c(Cl)ccc([N+](=O)[O-])c2NC[C@@H]1C`, 60 to 62 °C. In the case of `C#Cc1ccc2c(c1)C(=O)N(C(C)(C)C)CC(=O)N2`, the melting point was in the range of 216 to 219 °C. `CN(C)CC1CCCCN1CCNC(=O)N1c2ccccc2NC(=O)c2ccccc21` (stereo not drawn) came in with a melting point of 152 to 154 °C. On to `CN(C1=NC(=O)CS1)c1ccc(C(O)(C(F)(F)F)C(F)(F)F)cc1`, for which the melting point lay in the range of 240 to 242 °C.

As to `O=C(O)c1ccc([N+](=O)[O-])cc1NC(=O)C(F)(F)F`, the melting point is 198 °C. Under `COc1cc(Nc2c(C#N)cnc3cc(I)c(OC)cc23)c(Cl)cc1Cl` stands 253 to 254 °C; under `Cc1c(C(=O)OC(C)C)sc(C(=O)OC(C)C)c1O`, 87 to 89 °C. `COC(=O)c1ccc2c(c1)SCCC2O` (stereo not drawn) registered a melting point of 79 to 81 °C. In the case of `Cc1csc(C)c1N(Cn1cccn1)C(=O)CCl` it was 88 to 89 °C; in that of `COC=C(C(=O)OC)c1c(OCc2cc(Cl)ccc2Cl)c(C)nn1C`, 94 to 96 °C; in that of `O=Cc1cccn2ccnc12`, 137 to 139 °C. `O=S(=O)(On1nnc2ccccc21)c1ccc(Cl)cc1`: the melting point was in the range of 94 to 95 °C. In the case of `COc1cccc(Nc2c(N)cc(C(=O)O)cc2S(N)(=O)=O)c1`, the melting point was in the range of 232 to 234 °C. As to `CCn1cc(C(=O)O)c(=O)c2cc(F)c(N3CCC(CN)C3)c(F)c21` (stereo not drawn), the melting point fell in the range of 219 to 221 °C. In the case of `CC1CCN(c2nccc(Oc3ccc(NC(=O)c4cc(F)cc(N5CCCCC5)c4)c4ccccc34)n2)CC1` it was 145 to 146 °C; in that of `CN(C)CCCCCNC(=O)c1ccc(-c2nnc(CSCCOc3ccccc3)o2)cc1`, 83 to 89 °C.

On to `Nc1nc2cc(Cl)c(Cl)c(Cl)c2[nH]1`, for which the melting point lay in the range of 255 to 258 °C. Take `COc1ccc(C2=NN(C3CCN(C(=O)c4cccnc4)CC3)C(=O)CC2)cc1OC`: the melting point was 162 to 164 °C. Compound `CCCCCCCCc1c(N)nc(S(C)(=O)=O)nc1CC` yielded a melting point of 90 to 92 °C. Under `Cc1ccc(-c2cn3cc(-c4cccc(CO)c4)ccc3n2)cc1` stands 171 to 173 °C; under `O=c1[nH]c2c(-c3ccccc3F)nnn2c2ccccc12`, 238 to 241 °C; under `CCN(CC)c1ccc(C(C)=O)cc1S(N)(=O)=O`, 103 to 105 °C. In the case of `CN(C)Cc1cccc(OCCCNc2nc(N=Cc3cccnc3)nn2C)c1` it was 92 to 93 °C; in that of `[N-]=[N+]=N[C@@H]1CN2C(=O)N(c3cc(Cl)cc(Cl)c3)C(=O)[C@]2(Cc2ccc(Br)cc2)C1`, 58.9 °C.

`COC(=O)c1ccc(Br)c(CBr)c1` had a melting point of 100 to 101 °C. `O=S(=O)(c1cccc(-c2cc(-c3nc(-c4ccc(C(F)(F)F)cc4)cc(C(F)(F)F)n3)ccn2)c1)N1CCC(O)C1` (racemic) yielded a melting point of 234 °C.

Consider `CN(C)C1(c2ccccc2)CCC(CNC(=O)NCCc2c[nH]c3ccc(F)cc23)CC1` (stereo not drawn), for which the melting point lay in the range of 70 to 73 °C. Under `Cc1ccc(S(=O)(=O)N(C)c2cc(C)cc([N+](=O)[O-])c2N)cc1` stands 208 °C; under `O=S(=O)(Cl)c1ccc(-c2ccc(C(F)(F)F)cc2)s1`, 73 to 75 °C; under `CCCCCOc1cc(C(=O)O)cc(N)c1-c1ccccc1`, 134 to 135 °C. Under `COc1ccc(S(=O)(=O)Nc2ccccc2Nc2ccccn2)cc1` stands 113 to 116 °C. For `Cc1cnc(C2=NC(C)(C(C)C)C(=O)N2)c(C(O)(c2cccs2)c2cccs2)c1` (stereo not drawn), the melting point was in the range of 190 to 191 °C.

In turn, `COc1ccc(C(=NO)c2cc(F)ccc2F)c(O)c1Cl` gave a melting point of 209 to 210 °C.
